Values of other authors, collected in patent publication US5556638A, “Flurbiprofen-containing immediate-effect medicament and its use” (Alfatec Pharma GMBH, priority 1991, dated 1996).

Assays:
[1] = prior art
[2] = racemate
pain = settings: optical antipodes of flurbiprofen
inflammation = settings: optical antipodes of flurbiprofen

CC(C(=O)O)c1ccc(-c2ccccc2)c(F)c1 (racemic) [Racemic flurbiprofen]
time until therapeutic concentrations are achieved ([1]; racemic flurbiprofen): 4 to 5 h | tmax ([1]; racemic flurbiprofen, blood level maximum): 1 to 2 h | undesirable side effects [2]: significant undesirable side effects

C[C@@H](C(=O)O)c1ccc(-c2ccccc2)c(F)c1 [R-flurbiprofen]
analgesic action (pain): pronounced analgesic action

C[C@H](C(=O)O)c1ccc(-c2ccccc2)c(F)c1 [S-flurbiprofen]
anti-inflammatory action (inflammation): marked anti-inflammatory action

CC(C(=O)O)c1ccc(-c2ccccc2)c(F)c1 (stereo not drawn) [flurbiprofen, 2-(2-fluoro-4-biphenylyl)propionic acid]
site of absorption ([1]; oral): only absorbed in the upper small intestine
